This passage reports IC50 and inhibition results from patent EP4610262A1, “MACROCYCLIC COMPOUND AS CDK9 INHIBITOR AND USE THEREOF” (Artivila Biopharma, priority 2022, dated 2024).

As usually defined, the IC50 is the concentration that gives 50% inhibition. A low value points to greater potency.

Assay [1] deals with MV-4-11. Briefly: CDK9 cell activity assay, cell growth inhibition (CellTiter-Glo, 72 hours). It is filed as cell-based. To be noted: Homo sapiens, MV4-11. How it is done:
(§1) In the CDK9 cell activity assay, the cell line MV-4-11 was cultured in IMDM culture medium containing 10% fetal bovine serum (containing 100 U/mL penicillin and 0.1 g/L streptomycin); the cell line HCC1187 was cultured in RPMI-1640 culture medium containing 10% fetal bovine serum (containing 100 U/mL penicillin and 0.1 g/L streptomycin); the cell line Mia Paca-2 was cultured in DMEM containing 10% fetal bovine serum and 2.5% horse serum (containing 100 U/mL penicillin and 0.1 g/L streptomycin); and the cell line A375 was cultured in RPMI-1640 culture medium containing 10% fetal bovine serum (containing 100 U/mL penicillin and 0.1 g/L streptomycin). All cells were cultured in an incubator with saturated humidity at 37°C with 5% CO2.
(§2) When MV-4-11 cells, HCC1187 cells, Mia Paca-2 cells, and A375 cells grew to 80%-90% confluence, they were digested with trypsin, resuspended, counted, and diluted to a certain cell density with complete medium. 100 µL of the cells was plated into each well of a 96-well plate, and the complete medium was used as a background control. The cells were cultured overnight in an incubator with saturated humidity at 37°C with 5% CO2. The compounds were diluted with DMSO to a final concentration of 200×. 3 µL of the stock solution of the above compounds in DMSO was added to 197 µL of complete medium, and 50 µL of the compound diluted in the medium was added to the cells of each well. The cells were cultured in an incubator with saturated humidity at 37°C with 5% CO2 for 72 hours. After 72 hours, the culture plates were placed at room temperature for equilibrium. 40 µL of CellTiter-Glo® reagent was added to each well. The plate was mixed evenly on a shaker for 2 minutes to lyse the cells then incubated at room temperature for 60 minutes to stabilize the chemiluminescent signal, and the chemiluminescence was read using a PE EnVision microplate reader. The inhibition rate on cell growth was calculated as % Inh = (DMSO well - compound treatment well) / (DMSO well - background well) x 100, and fitting was performed using GraphPad Prism 5 to obtain the IC50 values against cell growth.
On the technique in general: Cellular ATP, detected with luciferase, serves as a proxy for viable cell number.

Assay [2] has as its system A375. The description is as above. It is filed as cell-based. To be noted: Homo sapiens, A-375. How it is done: as §1, §2
The subject of assay [3] is HCC1187. Described as above. In kind it is cell-based. To be noted: Homo sapiens. How it is done: as §1, §2
The test system of assay [4] is Mia-Paca-2. The assay is described as above. It is filed as cell-based. To be noted: Homo sapiens. How it is done: as §1, §2
Assay [5] has as its target CDK19/CycC (Homo sapiens, UniProt Q9BWU1). As to the kind of experiment: CDK kinase selectivity (HTRF / ADP-Glo). It is filed as biochemical. Conditions: compound at 0.1 µM; read-out: Inhibition rate CDK19/CycC. How it is done:
(§3) The selectivity of the test compounds against CDK kinases was detected. The compounds were tested at a concentration of 0.1 µM, and the inhibition rate of CDK kinases by the compounds was detected in duplicate wells, mainly using HTRF and ADP-Glo detection methods.
(§4) The HTRF detection method was conducted as follows: 2-fold ATP/substrate solution and 2-fold kinase/metal ion solution were prepared respectively with a kinase reaction buffer, and 25 nL of diluted compound solution was transferred to a 384-well detection plate with Echo 655. After centrifugation, the plate was added with 2.5 µL of 2-fold kinase/metal ion solution and incubated at 25°C for 10 minutes. After 10 minutes, 2.5 µL of 2-fold substrate/ATP solution was added to the 384-well detection plate and incubated at 25°C for 60 minutes. 2 kinase detection reagent (XL665 and antibody) was prepared with detection buffer, and 5 µL of kinase detection reagent was added to the 384-well detection plate and incubated at 25°C for 60 minutes. The fluorescence signals at 620 nm (Cryptate) and 665 nm (XL665) were read by the microplate reader, and the ratio and the inhibition rate of kinase activity by the compound were calculated.
(§5) The ADP-Glo detection method was conducted as follows. 2-fold ATP/substrate solution and 2-fold kinase/metal ion solution were prepared respectively with a kinase reaction buffer. 20 nL of diluted compound solution was transferred to a 384-well detection plate by Echo 655. After centrifuged, the 384-well detection plate was added with 2 µL of 2 × kinase/metal ion solution, and incubated at 25°C for 10 minutes. After 10 minutes, the 384-well detection plate was added with 2 µL of 2 × substrate/ATP solution and incubated at 25°C for 60 minutes. 4 µL of ADP-Glo reagent was added to each well and incubated at room temperature for 40 minutes. 10 µL of ADP detection reagent was added to each well and incubated at room temperature for 40 minutes. The chemiluminescent signal was detected with a microplate reader and the inhibition rate of kinase activity was calculated.
On the technique in general: Time-resolved FRET reads energy transfer from a long-lived donor to a nearby acceptor.

Assay [6] addresses CDK9/CycT1 (Homo sapiens, UniProt P50750). Briefly: CDK kinase selectivity (HTRF / ADP-Glo). In kind it is biochemical. Conditions: compound at 0.1 µM; read-out: Inhibition rate CDK9/CycT1. How it is done:
as §3, §4, §5

Assay [7] addresses CDK5/p35NCK (Homo sapiens, UniProt Q00535). Briefly: CDK kinase selectivity (HTRF / ADP-Glo). In kind it is biochemical. To be noted: compound at 0.1 µM; read-out: Inhibition rate CDK5/p35NCK. How it is done: as §3, §4, §5
Assay [8] addresses CDK4/cycD1 (Homo sapiens, UniProt P11802). As to the kind of experiment: CDK kinase selectivity (HTRF / ADP-Glo). In kind it is biochemical. To be noted: compound at 0.1 µM; read-out: Inhibition rate CDK4/cycD1. How it is done:
as §3, §4, §5

The target in assay [9] is CDK12/CyclinK (Homo sapiens, UniProt Q9NYV4). As to the kind of experiment: CDK kinase selectivity (HTRF / ADP-Glo). In kind it is biochemical. To be noted: compound at 0.1 µM; read-out: Inhibition rate CDK12/CyclinK. How it is done: as §3, §4, §5
For assay [10], the target named is CDK2/CycE1 (Homo sapiens, UniProt P24941). As to the kind of experiment: CDK kinase selectivity (HTRF / ADP-Glo). In kind it is biochemical. Conditions: compound at 0.1 µM; read-out: Inhibition rate CDK2/CycE1. How it is done: as §3, §4, §5
In assay [11] the target is CDK1/CycB1 (Homo sapiens, UniProt P06493). Briefly: CDK kinase selectivity (HTRF / ADP-Glo). It is filed as biochemical. Conditions: compound at 0.1 µM; read-out: Inhibition rate CDK1/CycB1. How it is done: as §3, §4, §5
Chain of CDK1/CycB1 (P06493 whole entry): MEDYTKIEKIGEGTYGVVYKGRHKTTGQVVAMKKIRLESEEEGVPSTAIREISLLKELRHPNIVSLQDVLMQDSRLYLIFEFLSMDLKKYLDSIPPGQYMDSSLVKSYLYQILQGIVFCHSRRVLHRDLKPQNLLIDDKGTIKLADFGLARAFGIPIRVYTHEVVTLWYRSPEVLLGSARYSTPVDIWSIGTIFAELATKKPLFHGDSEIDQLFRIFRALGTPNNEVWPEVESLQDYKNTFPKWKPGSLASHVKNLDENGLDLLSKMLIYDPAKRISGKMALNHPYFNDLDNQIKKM
Chain of CDK1/CycB1 (P14635 whole entry partner): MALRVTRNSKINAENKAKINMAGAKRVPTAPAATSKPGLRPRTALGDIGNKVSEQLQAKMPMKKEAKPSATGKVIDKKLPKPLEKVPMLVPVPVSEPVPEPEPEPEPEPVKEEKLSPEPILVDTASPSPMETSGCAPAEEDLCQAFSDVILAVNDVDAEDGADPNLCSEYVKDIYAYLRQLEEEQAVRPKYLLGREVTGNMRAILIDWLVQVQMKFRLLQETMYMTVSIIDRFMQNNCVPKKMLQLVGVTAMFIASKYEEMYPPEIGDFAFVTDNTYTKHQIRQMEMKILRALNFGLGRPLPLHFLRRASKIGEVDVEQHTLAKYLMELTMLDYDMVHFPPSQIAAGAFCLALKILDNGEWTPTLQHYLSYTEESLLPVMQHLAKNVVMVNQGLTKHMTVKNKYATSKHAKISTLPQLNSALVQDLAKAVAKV
In assay [12] the target is CDK18/CyclinY (Homo sapiens, UniProt Q07002). As to the kind of experiment: CDK kinase selectivity (HTRF / ADP-Glo). It is filed as biochemical. To be noted: compound at 0.1 µM; read-out: Inhibition rate CDK18/CyclinY. How it is done: as §3, §4, §5
Assay [13] addresses CDK7/CycH/MAT1 (Homo sapiens, UniProt P50613). As to the kind of experiment: CDK kinase selectivity (HTRF / ADP-Glo). It is filed as biochemical. Conditions: compound at 0.1 µM; read-out: Inhibition rate CDK7/CycH/MAT1. How it is done: as §3, §4, §5
The target of assay [14] is CDK4/CycD3 (Homo sapiens, UniProt P11802). As to the kind of experiment: CDK kinase selectivity (HTRF / ADP-Glo). It is filed as biochemical. Conditions: compound at 0.1 µM; read-out: Inhibition rate CDK4/CycD3. How it is done:
as §3, §4, §5

For assay [15], the target named is CDK2/CyCA2 (Homo sapiens, UniProt P24941). As to the kind of experiment: CDK kinase selectivity (HTRF / ADP-Glo). It is filed as biochemical. To be noted: compound at 0.1 µM; read-out: Inhibition rate CDK2/CyCA2. How it is done:
as §3, §4, §5

Chain of CDK5/p35NCK (Q00535 whole entry): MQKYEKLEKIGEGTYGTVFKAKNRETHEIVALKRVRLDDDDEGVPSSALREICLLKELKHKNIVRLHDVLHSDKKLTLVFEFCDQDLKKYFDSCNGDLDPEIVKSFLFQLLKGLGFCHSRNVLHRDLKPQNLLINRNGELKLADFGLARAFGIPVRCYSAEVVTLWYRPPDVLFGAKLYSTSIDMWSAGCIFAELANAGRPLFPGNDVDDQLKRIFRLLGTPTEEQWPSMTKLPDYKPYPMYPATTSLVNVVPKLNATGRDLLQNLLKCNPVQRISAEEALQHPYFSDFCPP
Chain of CDK5/p35NCK (Q15078 2-307 partner limits assumed): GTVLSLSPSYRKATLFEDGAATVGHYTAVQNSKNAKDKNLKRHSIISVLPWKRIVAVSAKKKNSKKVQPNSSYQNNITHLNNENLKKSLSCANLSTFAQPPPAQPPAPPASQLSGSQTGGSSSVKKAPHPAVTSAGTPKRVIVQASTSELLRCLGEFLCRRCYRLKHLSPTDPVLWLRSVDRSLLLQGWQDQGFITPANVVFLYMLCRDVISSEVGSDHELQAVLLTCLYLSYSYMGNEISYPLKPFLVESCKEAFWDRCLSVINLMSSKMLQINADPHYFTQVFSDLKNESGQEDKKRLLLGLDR
Chain of CDK9/CycT1 (P50750 whole entry, species assumed): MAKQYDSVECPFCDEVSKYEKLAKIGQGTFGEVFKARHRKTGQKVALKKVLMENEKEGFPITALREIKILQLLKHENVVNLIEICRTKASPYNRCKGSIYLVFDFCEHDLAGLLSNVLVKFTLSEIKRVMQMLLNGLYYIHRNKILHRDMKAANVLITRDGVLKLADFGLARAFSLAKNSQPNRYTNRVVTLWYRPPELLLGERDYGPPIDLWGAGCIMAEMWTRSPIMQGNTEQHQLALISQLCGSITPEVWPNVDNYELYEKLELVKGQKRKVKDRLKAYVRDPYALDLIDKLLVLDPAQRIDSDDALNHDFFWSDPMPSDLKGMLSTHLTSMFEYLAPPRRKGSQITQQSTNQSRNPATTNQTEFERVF
Chain of CDK9/CycT1 (O60563 whole entry partner, species assumed): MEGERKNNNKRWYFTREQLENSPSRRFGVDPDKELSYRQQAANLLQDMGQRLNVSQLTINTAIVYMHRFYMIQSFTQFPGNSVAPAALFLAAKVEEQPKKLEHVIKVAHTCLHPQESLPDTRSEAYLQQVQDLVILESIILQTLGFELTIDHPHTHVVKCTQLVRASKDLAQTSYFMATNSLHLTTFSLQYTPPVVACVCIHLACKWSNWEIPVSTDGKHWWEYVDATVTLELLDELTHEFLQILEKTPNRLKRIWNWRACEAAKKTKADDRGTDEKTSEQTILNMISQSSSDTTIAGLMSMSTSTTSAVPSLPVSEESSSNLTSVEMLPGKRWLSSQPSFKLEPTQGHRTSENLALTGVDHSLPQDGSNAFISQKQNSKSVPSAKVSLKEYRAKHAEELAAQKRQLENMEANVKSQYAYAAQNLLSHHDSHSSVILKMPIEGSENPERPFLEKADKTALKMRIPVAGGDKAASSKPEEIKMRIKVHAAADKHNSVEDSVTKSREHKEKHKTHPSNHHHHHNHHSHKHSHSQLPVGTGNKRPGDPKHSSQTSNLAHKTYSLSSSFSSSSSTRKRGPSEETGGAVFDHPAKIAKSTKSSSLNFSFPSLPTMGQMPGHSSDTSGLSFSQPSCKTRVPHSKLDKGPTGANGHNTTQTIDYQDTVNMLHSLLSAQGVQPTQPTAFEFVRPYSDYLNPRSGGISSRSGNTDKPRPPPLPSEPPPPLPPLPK
Chain of CDK7/CycH/MAT1 (P50613 whole entry, species assumed): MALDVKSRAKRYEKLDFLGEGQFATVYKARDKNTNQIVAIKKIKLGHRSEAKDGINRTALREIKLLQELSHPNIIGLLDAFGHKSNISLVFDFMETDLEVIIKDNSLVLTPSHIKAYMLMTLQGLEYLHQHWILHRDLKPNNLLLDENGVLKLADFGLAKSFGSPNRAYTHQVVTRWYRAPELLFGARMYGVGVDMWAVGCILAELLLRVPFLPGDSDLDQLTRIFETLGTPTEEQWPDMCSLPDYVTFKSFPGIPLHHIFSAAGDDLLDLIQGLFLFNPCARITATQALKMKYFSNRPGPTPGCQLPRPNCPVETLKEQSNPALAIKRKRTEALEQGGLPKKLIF
Chain of CDK7/CycH/MAT1 (P51946 whole entry partner, species assumed): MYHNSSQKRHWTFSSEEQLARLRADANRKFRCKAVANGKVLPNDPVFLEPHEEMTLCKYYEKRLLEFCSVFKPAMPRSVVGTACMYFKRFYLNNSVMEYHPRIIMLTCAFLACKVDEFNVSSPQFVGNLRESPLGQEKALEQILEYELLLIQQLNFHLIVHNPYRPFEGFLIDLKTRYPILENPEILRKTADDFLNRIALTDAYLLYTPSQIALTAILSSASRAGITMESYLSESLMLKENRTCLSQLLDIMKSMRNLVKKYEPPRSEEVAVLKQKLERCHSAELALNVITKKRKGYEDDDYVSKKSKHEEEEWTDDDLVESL
Chain of CDK7/CycH/MAT1 (P51948 whole entry partner, species assumed): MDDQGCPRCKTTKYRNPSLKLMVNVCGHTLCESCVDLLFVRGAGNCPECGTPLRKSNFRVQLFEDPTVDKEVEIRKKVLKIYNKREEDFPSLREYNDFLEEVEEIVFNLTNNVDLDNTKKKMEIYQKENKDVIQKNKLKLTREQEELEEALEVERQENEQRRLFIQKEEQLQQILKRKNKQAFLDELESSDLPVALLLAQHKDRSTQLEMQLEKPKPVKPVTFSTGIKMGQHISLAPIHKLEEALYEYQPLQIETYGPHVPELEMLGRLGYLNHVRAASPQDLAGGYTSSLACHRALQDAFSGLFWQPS
Chain of CDK4/CycD3 (P11802 whole entry): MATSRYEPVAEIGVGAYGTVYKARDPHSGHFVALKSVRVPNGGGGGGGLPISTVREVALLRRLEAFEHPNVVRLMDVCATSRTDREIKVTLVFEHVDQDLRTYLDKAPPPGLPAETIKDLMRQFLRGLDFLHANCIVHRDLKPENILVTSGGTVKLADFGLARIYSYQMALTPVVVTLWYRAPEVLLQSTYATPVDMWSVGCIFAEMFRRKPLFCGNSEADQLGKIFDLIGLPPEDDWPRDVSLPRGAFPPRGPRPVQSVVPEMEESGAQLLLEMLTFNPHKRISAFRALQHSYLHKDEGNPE
Chain of CDK4/CycD3 (P30281 whole entry partner): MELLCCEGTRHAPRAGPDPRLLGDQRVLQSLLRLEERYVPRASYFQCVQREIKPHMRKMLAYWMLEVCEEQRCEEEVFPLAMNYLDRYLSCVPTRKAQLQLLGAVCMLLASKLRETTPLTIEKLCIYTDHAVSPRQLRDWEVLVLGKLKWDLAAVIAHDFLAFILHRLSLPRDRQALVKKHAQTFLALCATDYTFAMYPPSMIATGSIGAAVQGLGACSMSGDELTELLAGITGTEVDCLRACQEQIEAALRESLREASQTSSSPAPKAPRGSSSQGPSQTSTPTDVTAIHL
Chain of CDK4/cycD1 (P11802 whole entry): as the sequence (P11802 whole entry) above
Chain of CDK4/cycD1 (P24385 whole entry partner): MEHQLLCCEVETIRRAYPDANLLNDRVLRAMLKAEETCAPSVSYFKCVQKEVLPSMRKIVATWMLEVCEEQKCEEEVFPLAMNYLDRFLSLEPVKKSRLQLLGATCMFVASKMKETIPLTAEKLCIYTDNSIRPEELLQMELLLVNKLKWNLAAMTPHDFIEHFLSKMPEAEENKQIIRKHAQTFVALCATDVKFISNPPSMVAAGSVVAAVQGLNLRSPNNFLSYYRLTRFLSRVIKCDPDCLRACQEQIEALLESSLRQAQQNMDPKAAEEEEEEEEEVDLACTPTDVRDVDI

Turning to `Clc1cnc2nc1NCCCCCNCc1cccc(c1)N2` [Compound 8, 1^5-chloro-2,5,11-triaza-1(2,4)-pyrimidina-3(1,3)-benzenacyclodecaphane], the IC50 in [1] was under 250 nM; in [2] it was under 250 nM; in assay [3], 250 to 1000 nM; in assay [4], under 250 nM. For the same molecule, the inhibition at 0.1 µM is under 50% in assay [5]; over 95% in [6]; under 50% in assay [7]; under 50% in assay [8]; 50 to 75% in assay [9]; 50 to 75% in assay [10]. Moreover, the inhibition at 0.1 µM was under 50% in assay [11]; under 50% in [12]; 50 to 75% in assay [13]; 50 to 75% in assay [14]; under 50% in assay [15].
